# Columns and labels:
# Assay in all cases: Test B pre-/postemergence plant response
# Format in all cases: in vivo
# [1] = test system: catchweed bedstraw (Galium aparine); settings: Preemergence
# Method in brief: (§1)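 Preemergence and postemergence (plants 2-18 cm, 1- to 4-leaf stage) applications used test chemicals in a non-phytotoxic solvent with surfactant. Plants were held in a greenhouse 13 to 15 days, then rated visually against controls on a 0-100 scale (0 no effect, 100 complete control).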
# kochia (Kochia scoparia) = settings: for Kochia plant response rating: 8 g ai/ha
# Method in brief: as §1
# [2] = test system: Russian thistle (Salsola iberica); settings: Preemergence
# Method in brief: as §1
# [3] = test system: eastern black (E.B.) nightshade (Solanum ptycanthum); settings: Preemergence
# Method in brief: as §1
# [4] = test system: goosegrass (Eleusine indica); settings: for Goosegrass plant response rating: 8 g ai/ha
# Method in brief: as §1
# [5] = test system: pigweed (Amaranthus retroflexus); settings: for Pigweed plant response rating: 8 g ai/ha
# Method in brief: as §1
# [6] = test system: johnsongrass (Sorghum halepense); settings: for Johnsongrass plant response rating: 8 g ai/ha
# Method in brief: as §1
# [7] = test system: woolly cupgrass (Eriochloa villosa); settings: for Cupgrass, Woolly plant response rating: 8 g ai/ha
# Method in brief: as §1
# [8] = test system: lambsquarters (Chenopodium album); settings: for Lambsquarters plant response rating: 8 g ai/ha
# Method in brief: as §1
# [9] = test system: common ragweed (Ambrosia elation); settings: for Ragweed plant response rating: 8 g ai/ha
# Method in brief: as §1
# [10] = test system: Italian ryegrass (Lolium multiflorum); settings: for Ryegrass, Italian plant response rating: 8 g ai/ha
# Method in brief: as §1
# [11] = test system: giant foxtail (Setaria faberii); settings: for Foxtail, Giant plant response rating: 8 g ai/ha
# Method in brief: as §1
# [12] = test system: blackgrass (Alopecurus myosuroides); settings: for Blackgrass plant response rating: 8 g ai/ha
# Method in brief: as §1
# soybean (Glycine max) = settings: for Soybean plant response rating: 8 g ai/ha
# Method in brief: as §1
# [13] = 16 g ai/ha, scale 0 to 100 (0 no effect, 100 complete control)
# [14] = 31 g ai/ha, 0 to 100 scale, 0 no effect, 100 complete control
# [15] = Postemergence, 16 g ai/ha, scale 0 to 100
# [16] = Postemergence, 31 g ai/ha, scale 0 to 100, 0 no effect, 100 complete control
# [17] = Postemergence, 62 g ai/ha, scale 0 to 100
# [18] = Preemergence, 16 g ai/ha, scale 0 to 100 (0 no effect, 100 complete control)
# [19] = Preemergence, 62 g ai/ha, scale 0 to 100
# [20] = Preemergence, 31 g ai/ha, 0 to 100 scale, 0 no effect, 100 complete control
smiles,measurement,setting,value
CCc1cc(-c2ccc(F)cc2)nn1-c1c(O)cnn(C)c1=O [Compound 25],"Plant response rating, Galium",[1]; [13],0
same,"Plant response rating, Galium",[1]; [14],0
same,"Plant response rating, Galium","[1]; 62 g ai/ha, scale 0 to 100",0
same,Galium plant response rating,"[1]; 8 g ai/ha, scale 0 to 100",0
same,Kochia plant response rating,"kochia (Kochia scoparia); postemergence, 0-100 scale",0
same,"Plant response rating, Kochia",kochia (Kochia scoparia); [15],0
same,"Plant response rating, Kochia",kochia (Kochia scoparia); [16],0
same,"Plant response rating, Kochia",kochia (Kochia scoparia); [17],0
same,"Plant response rating, Kochia",kochia (Kochia scoparia); [18],0
same,"Plant response rating, Kochia",kochia (Kochia scoparia); [19],50
same,Kochia plant response rating,"kochia (Kochia scoparia); Preemergence, scale 0 to 100",0
same,"Plant response rating, Russian Thistle",[2]; [13],0
same,"Plant response rating, Russian Thistle",[2]; [14],0
same,"Plant response rating, Russian Thistle","[2]; 62 g ai/ha, scale 0 to 100",0
same,Russian Thistle plant response rating,"[2]; 8 g ai/ha, scale 0 to 100",0
same,"Plant response rating, Nightshade, E. B.",[3]; [13],0
same,"Plant response rating, Nightshade, E. B.",[3]; [14],0
same,"Plant response rating, Nightshade, E. B.","[3]; 62 g ai/ha, scale 0 to 100",0
same,"Nightshade, E. B. plant response rating","[3]; 8 g ai/ha, scale 0 to 100",0
same,Goosegrass plant response rating,"[4]; postemergence, 0-100 scale",0
same,"Plant response rating, Goosegrass",[4]; [15],0
same,"Plant response rating, Goosegrass",[4]; [16],0
same,"Plant response rating, Goosegrass",[4]; [17],50
same,"Plant response rating, Goosegrass",[4]; [18],50
same,"Plant response rating, Goosegrass",[4]; [20],75
same,"Plant response rating, Goosegrass",[4]; [19],85
same,Goosegrass plant response rating,"[4]; Preemergence, scale 0 to 100",0
same,Pigweed plant response rating,"[5]; postemergence, 0-100 scale",0
same,"Plant response rating, Pigweed",[5]; [15],0
same,"Plant response rating, Pigweed",[5]; [16],0
same,"Plant response rating, Pigweed",[5]; [17],10
same,"Plant response rating, Pigweed",[5]; [18],0
same,"Plant response rating, Pigweed",[5]; [20],0
same,"Plant response rating, Pigweed",[5]; [19],80
same,Pigweed plant response rating,"[5]; Preemergence, scale 0 to 100",0
same,Johnsongrass plant response rating,"[6]; postemergence, 0-100 scale",0
same,"Plant response rating, Johnsongrass",[6]; [15],0
same,"Plant response rating, Johnsongrass",[6]; [16],0
same,"Plant response rating, Johnsongrass",[6]; [17],30
same,"Plant response rating, Johnsongrass",[6]; [18],0
same,"Plant response rating, Johnsongrass",[6]; [20],0
same,"Plant response rating, Johnsongrass",[6]; [19],0
same,Johnsongrass plant response rating,"[6]; Preemergence, scale 0 to 100",0
same,"Cupgrass, Woolly plant response rating","[7]; postemergence, 0-100 scale",60
same,"Plant response rating, Cupgrass, Woolly",[7]; [15],80
same,"Plant response rating, Cupgrass, Woolly",[7]; [16],85
same,"Plant response rating, Cupgrass, Woolly",[7]; [17],100
same,"Plant response rating, Cupgrass, Woolly",[7]; [18],40
same,"Plant response rating, Cupgrass, Woolly",[7]; [20],80
same,"Plant response rating, Cupgrass, Woolly",[7]; [19],80
same,"Cupgrass, Woolly plant response rating","[7]; Preemergence, scale 0 to 100",0
same,Lambsquarters plant response rating,"[8]; postemergence, 0-100 scale",0
same,"Plant response rating, Lambsquarters",[8]; [15],0
same,"Plant response rating, Lambsquarters",[8]; [16],0
same,"Plant response rating, Lambsquarters",[8]; [17],10
same,"Plant response rating, Lambsquarters",[8]; [18],0
same,"Plant response rating, Lambsquarters",[8]; [20],0
same,"Plant response rating, Lambsquarters",[8]; [19],40
same,Lambsquarters plant response rating,"[8]; Preemergence, scale 0 to 100",0
same,Ragweed plant response rating,"[9]; postemergence, 0-100 scale",0
same,"Plant response rating, Ragweed",[9]; [15],0
same,"Plant response rating, Ragweed",[9]; [16],0
same,"Plant response rating, Ragweed",[9]; [17],0
same,"Plant response rating, Ragweed",[9]; [18],0
same,"Plant response rating, Ragweed",[9]; [20],0
same,"Plant response rating, Ragweed",[9]; [19],0
same,Ragweed plant response rating,"[9]; Preemergence, scale 0 to 100",0
same,"Ryegrass, Italian plant response rating","[10]; postemergence, 0-100 scale",60
same,"Plant response rating, Ryegrass, Italian",[10]; [15],80
same,"Plant response rating, Ryegrass, Italian",[10]; [16],85
same,"Plant response rating, Ryegrass, Italian",[10]; [17],95
same,"Plant response rating, Ryegrass, Italian",[10]; [18],50
same,"Plant response rating, Ryegrass, Italian",[10]; [20],90
same,"Plant response rating, Ryegrass, Italian",[10]; [19],100
same,"Ryegrass, Italian plant response rating","[10]; Preemergence, scale 0 to 100",50
same,"Foxtail, Giant plant response rating","[11]; postemergence, 0-100 scale",70
same,"Plant response rating, Foxtail, Giant",[11]; [15],85
same,"Plant response rating, Foxtail, Giant",[11]; [16],85
same,"Plant response rating, Foxtail, Giant",[11]; [17],95
same,"Plant response rating, Foxtail, Giant",[11]; [18],60
same,"Plant response rating, Foxtail, Giant",[11]; [20],90
same,"Plant response rating, Foxtail, Giant",[11]; [19],100
same,"Foxtail, Giant plant response rating","[11]; Preemergence, scale 0 to 100",50
same,Blackgrass plant response rating,"[12]; postemergence, 0-100 scale",0
same,"Plant response rating, Blackgrass",[12]; [15],40
same,"Plant response rating, Blackgrass",[12]; [16],75
same,"Plant response rating, Blackgrass",[12]; [17],95
same,"Plant response rating, Blackgrass",[12]; [19],90
same,Blackgrass plant response rating,"[12]; Preemergence, scale 0 to 100",70
same,Soybean plant response rating,"soybean (Glycine max); postemergence, 0-100 scale",0
same,"Plant response rating, Soybean",soybean (Glycine max); [15],0
same,"Plant response rating, Soybean",soybean (Glycine max); [16],0
same,"Plant response rating, Soybean",soybean (Glycine max); [17],0
same,"Plant response rating, Soybean",soybean (Glycine max); [18],0
same,"Plant response rating, Soybean",soybean (Glycine max); [20],0
same,"Plant response rating, Soybean",soybean (Glycine max); [19],0
same,Soybean plant response rating,"soybean (Glycine max); Preemergence, scale 0 to 100",0

# From patent publication US20100267561A1, “HERBICIDAL PYRIDAZINONE DERIVATIVES” (priority 2007, published 2010)
